Data from paper PMC9686516, “Pharmacokinetic Characteristics of Nebulized Colistimethate Sodium Using Two Different Types of Nebulizers in Critically Ill Patients with Ventilator-Associated Respiratory Infections” (Antibiotics, 2022).
Where two headings read alike, the source gives them in different places. Where a SMILES comes first, the peptide text is derived from it. Bridges are numbered along the chain shown (N, C = ends). [ ]: non-standard residue; d: D form. The star is where a group is joined. X1 = CC[C@H](C)CCCCC(=O)*; Dab = NCC[C@H](N)C(=O)O

What was measured:
Klebsiella pneumoniae = details: in vitro experiments, typical plasma maximum concentrations; cited from earlier work
[1] = cited from earlier work
Description: The median (IQR) values of colistin concentration in plasma (Ccolistin, plasma) using VMN nebulization were 0.6 (0.4–0.7) mg/L, 2.3 (1.4–2.7) mg/L, 1.7 (1.1–2.0) mg/L, 0.8 (0.7–0.9) mg/L, 0.4 (0.3–0.6) mg/L, and 0.2 (0.2–0.4) mg/L, at 0.5, 1, 2, 4, 6 and 8 h post-nebulization. The corresponding values with JN were 0.1 (0.1–0.1) mg/L, 0.1 (0.1–0.2) mg/L, 0.3 (0.3–0.4) mg/L, 0.2 (0.2–0.2) mg/L, 0.1 (0.1–0.1) mg/L, and 0.1 (0.1–0.1) mg/L (Figure 3). Median Ccolistin, plasma was greater than 2 mg/L at 1 h post-nebulization, a value which is the average concentration, in steady-state conditions, th ... || Contrarily, our results were only marginally compatible with the results of Boisson et al. and Gkoufa et al.. In the former study, the range of colistin concentration in the ELF following a 2 mIU inhalation spanned from 9.53 to 1137 mg/L [14], while it was between 0.8 mg/L and 57.9 mg/L in the present study. In the latter study, the exact values were not reported, however in the figured data it was shown that after an inhalation of 3 to 5 mIU of CMS, formed colistin concentrations were in the range of 10^2 to 10^3 mg/L [16]. Again, it is not known whether these differences we ...

[2] = Colistin pharmacokinetics in epithelial lining fluid (ELF) after nebulized CMS in ventilated VARI patients; type: in vivo, human; details: 2 mIU CMS inhaled; for AUC0–8 h: ELF (mini-BAL, urea-corrected), no systemic CMS, HPLC-fluorescence; for AUC0–8 h / Volume of distribution/ fraction of dose absorbed / Clearance/fraction of dose absorbed / Cmax: NCA; for AUC0–8 h / Volume of distribution/ fraction of dose absorbed / Clearance/fraction of dose absorbed / Cmax / AUC0–24 / Cmin / Tmax / level at 1 h / level at 4 h / level at 6 h / level at 8 h: median (IQR); for Ccolistin over 2 mg/L, frequency of patients / Ccolistin over 4 mg/L, frequency of patients / Volume of distribution/ fraction of dose absorbed / Clearance/fraction of dose absorbed / Cmax / AUC0–24 / Cmin / Tmax / level at 1 h / level at 4 h / level at 6 h / level at 8 h: ELF; for Volume of distribution/ fraction of dose absorbed: dose/(λ × AUCinf); for Clearance/fraction of dose absorbed: dose/AUCinf; for AUC0–24: calculated as AUCinf × 3 (thrice daily), total colistin; for level at 1 h / level at 4 h / level at 6 h / level at 8 h / Kp: human, inhaled or intranasal, 2 mIU; for level at 1 h / level at 4 h / level at 6 h / level at 8 h: epithelial lining fluid (ELF), read-out: Ccolistin,ELF; for level at 1 h: 1 h post-nebulization; for level at 4 h: 4 h post-nebulization; for level at 6 h: 6 h post-nebulization; for level at 8 h: 8 h post-nebulization; for Kp: epithelial lining fluid (ELF)/plasma, ELF/plasma mean concentration ratio, mean (SD), SD
Excerpt: The study population consisted of 24 critically ill adult patients, admitted to the intensive care unit of the First Department of Pulmonology of the National and Kapodistrian University of Athens between June 2014 and November 2017. All patients were intubated and mechanically ventilated, and received inhaled CMS as part of their treatment for VAP or VAT caused by Gram-negative pathogens. Subjects were studied around the first dose of nebulized treatment, which always preceded intravenous treatment, to avoid confounding by colistin (or CMS) reaching the ELF via the systemic circulation. We excluded patients that received a dose different to the institution’s standard of 2 million international units (mIU) (~160 mg) of CMS and patients who were planned to receive intravenous colistin within 8 h of nebulization initiation.
A dose of 2 mIU of CMS (Colistin®, Norma Hellas, Athens, Greece), corresponding to approximately 160 mg CMS or 68 mg colistin-base activity, was nebulized over a 10–30 min period via either VMN (Aeroneb Solo with Aeroneb Pro controller, Aerogen, Galway, Ireland) or generic JN. This was not a randomized trial, and the nebulizer selection was exclusively a matter of availability of VMN consumables in the ICU at the time. The intended dose was dissolved in 4 mL of normal saline 0.9%. The nebulizer was placed at the inspiratory limb of the ventilator circuit, at 15 cm from the Y-piece, and the heat and moisture exchanger was removed. During nebulization, the patients were sedated and ventilated using assist volume controlled mode, with tidal volume set at 8 mL/kg of ideal body weight, a constant squared-wave inspiratory flow, a positive end expiratory pressure (PEEP) of less than or equal to 10 cm H2O, an inspiratory to expiratory time ratio equal to 1, an inspiratory pause of 10%, and a respiratory rate set at 15/min [31].
[…] The catheter was inserted through the endotracheal tube. The lavage was performed with instillation of 2 syringes of 20 mL sterile normal saline at room temperature through the catheter. The aspirate from the first syringe was considered representative of bronchial washing and was, therefore, discarded. The aspirate from the second syringe was collected and centrifuged in frigid centrifuge (3500× g for 10 min at 4 °C) immediately (<2 min) to avoid falsely elevated levels of urea in BAL [34] and CMS hydrolysis to formed colistin. The supernatant liquid was stored in plastic micro test tubes (Safe-lock; Eppendorf AG; Hamburg, Germany) and frozen at –80 °C, until analysis.
Colistin concentrations in plasma (Ccolistin,plasma) and epithelial lining fluid (Ccolistin,ELF) were measured through high performance liquid chromatography (HPLC)-fluorescence analysis.
The samples were rapidly centrifuged, and plasma and BAL supernatant were separated and kept frozen (−80 °C) before analysis, as previously described. An HPLC-RF assay was used for colistin concentration measurements in plasma and BAL fluid samples, based on the method of Li et al., as modified by Markou et al. and Ratjen et al.. Briefly, netilmicin was used as the internal standard and the method consisted of a protein precipitation step with trifluoracetic acid (TFA), followed by colistin derivatization with 9-fluorenylmethyl chloroformate on a solid phase extraction C18 cartridge. The eluted fluid was dried under vacuum and the solid residue was reconstituted in mobile phase for subsequent reversed-phase HPLC with fluorescence detection (excitation: 260 nm; emission: 316 nm). The analytical column was a Phenomenex Luna C18, 3 μm, 50 mm × 3 mm with 100 Å particle size, while the mobile phase consisted of ACN/THF/H2O (80/7.7/12.3%) with a flow rate of 0.5 mL/min. The injection volume was 20 μL. The method was linear at a concentration range of 0.10–4.8 mg/L (R^2 = 0.999). […]

Acinetobacter baumannii = details: animal thigh and lung infection models; cited from earlier work
Pseudomonas aeruginosa = details: animal thigh and lung infection models; cited from earlier work

CC[C@H](C)CCCCC(=O)N[C@@H](CCN)C(=O)N[C@H](C(=O)N[C@@H](CCN)C(=O)N[C@H]1CCNC(=O)[C@H]([C@@H](C)O)NC(=O)[C@H](CCN)NC(=O)[C@H](CCN)NC(=O)[C@H](CC(C)C)NC(=O)[C@@H](CC(C)C)NC(=O)[C@H](CCN)NC1=O)[C@@H](C)O [colistin] (X1-[Dab]T[Dab][Dab][Dab][dL]L[Dab][Dab]T; lactam 4-C)
fAUC/MIC linked to 2-log killing (Klebsiella pneumoniae): 25 | average plasma concentration, in steady-state conditions, that predicts acute renal failure [1]: 2 mg/L | formed colistin plasma values linked to the occurrence of nephrotoxicity [1]: 2 to 2.5 mg/L | AUC0–8 h ([2]; JN, n = 6): 30.5 (26.0–36.8) mg/L∙h | AUC0–8 h ([2]; VMN, n = 18): 28.7 (15.1–68.1) mg/L∙h | Ccolistin over 2 mg/L, frequency of patients ([2]; 60 min, JN, n = 6): 16.7% | Ccolistin over 4 mg/L, frequency of patients ([2]; 60 min, JN, n = 6): 16.7% | Ccolistin over 2 mg/L, frequency of patients ([2]; 240 min, JN, n = 6): 100% | Ccolistin over 4 mg/L, frequency of patients ([2]; 240 min, JN, n = 6): 83.3% | Ccolistin over 2 mg/L, frequency of patients ([2]; 240 min, VMN, n = 18): 50% | Ccolistin over 4 mg/L, frequency of patients ([2]; 240 min, VMN, n = 18): 27.8% | Ccolistin over 2 mg/L, frequency of patients ([2]; 360 min, JN, n = 6): 83.3% | Ccolistin over 4 mg/L, frequency of patients ([2]; 360 min, JN, n = 6): 33.3% | Ccolistin over 2 mg/L, frequency of patients ([2]; 360 min, VMN, n = 18): 88.9% | Ccolistin over 4 mg/L, frequency of patients ([2]; 360 min, VMN, n = 18): 83.3% | Ccolistin over 2 mg/L, frequency of patients ([2]; 480 min, JN, n = 6): 0% | Ccolistin over 4 mg/L, frequency of patients ([2]; 480 min, JN, n = 6): 0% | Ccolistin over 2 mg/L, frequency of patients ([2]; 480 min, VMN, n = 18): 41.2% | Ccolistin over 4 mg/L, frequency of patients ([2]; 480 min, VMN, n = 18): 17.6% | Volume of distribution/ fraction of dose absorbed ([2]; JN, n = 6): 4.5 (3.5–5.1) L | Clearance/fraction of dose absorbed ([2]; JN, n = 6): 1.8 (1.5–2.1) L/h | Cmax ([2]; JN, n = 6): 7.4 (6.2–10.3) mg/L | AUC0–24 ([2]; JN, n = 6): 91.5 (78.1–110.3) mg/L∙h | Cmin ([2]; JN, n = 6): 1.1 (0.9–1.2) mg/L | Tmax ([2]; JN, n = 6): 4.3 (3.5–4.3) h | Volume of distribution/ fraction of dose absorbed ([2]; VMN, n = 18): 1.7 (0.8–5.2) L | Clearance/fraction of dose absorbed ([2]; VMN, n = 18): 1.4 (0.8–3.6) L/h | Cmax ([2]; VMN, n = 18): 10.4 (4.7–22.6) mg/L | AUC0–24 ([2]; VMN, n = 18): 86.2 (46.0–185.9) mg/L∙h | Cmin ([2]; VMN, n = 18): 0.4 (0.1–0.8) mg/L | Tmax ([2]; VMN, n = 18): 6.5 (6.3–6.6) h | level at 1 h ([2]; JN, n = 6): 1200 ng/mL | level at 1 h ([2]; VMN, n = 18): 700 ng/mL | level at 4 h ([2]; JN, n = 6): 6420 ng/mL | level at 4 h ([2]; VMN, n = 18): 2100 ng/mL | level at 6 h ([2]; JN, n = 6): 3300 ng/mL | level at 6 h ([2]; VMN, n = 18): 8600 ng/mL | level at 8 h ([2]; JN, n = 6): 1300 ng/mL | level at 8 h ([2]; VMN, n = 18): 1420 ng/mL | Kp ([2]; JN, n = 6): 4.8 | Kp ([2]; VMN, n = 18): 5.5 | fAUC/MIC predicting 1-log killing (Acinetobacter baumannii): 7–42 | fAUC/MIC predicting 1-log killing (Pseudomonas aeruginosa): 12.2–22.8
